Reference: patent publication US20080027022A1, “METHOD TO TREAT GASTRIC LESIONS” (priority 2006, published 2008)

Columns and labels:
Assay type in all cases: in vivo, rat
gastric acid secretion = assay: Gastric secretion, pylorus-ligation method; conditions: rats, 5 μg/kg i.p., 3 h
Protocol: Gastric juice was collected using the pylorus-ligation method. Briefly, rats were fasted for 24 hours, placed in restraint cages, and injected intraperitoneal with 5 μg/kg of ATL-146e. Thirty minutes after injection, pylorus ligation was performed. The stomach was removed 3 hours after pylorus ligation, and the gastric contents were collected. Following centrifugation the acid content of the supernatant was determined by titration with 0.01 mol NaOH to pH 7.0 using pH meter (f50 pH Meter; Beckman, Tokyo, Japan), and used to calculate gastric acid secretion in mEq/3 h.

PGE2 = assay: Mucosal content of PGE2 (radioimmunoassay)
Protocol: A part of fundic mucosa (about 100 mg) was excised for determination of PGE2 synthesis. The samples were weighed, finely minced with scissors for 15 sec, then suspended in 1.0 ml of 10 mM sodium phosphate buffer (pH 7.4). The samples were then incubated in a shaking bath (37°) for 29 min followed by centrifugation (9000 g for 30 sec). The supernatant was frozen and subsequent determination of PGE2 was performed by radioimmunoassay using PGE2 [125I] RIA kit (Dupont/NEN, Boston, Mass., USA).

TNF-α = assay: Gastric mucosal concentration of TNF-α after aspirin (ELISA); conditions: rats, gastric mucosa, 3 h after aspirin
Protocol: (§1) One hundred milligrams of scraped mucosa was homogenized for 30 sec with a polytron homogenizer (PT 1200, KInematica AG, Littau, Switzerland) in 1.0 ml of ice-cold potassium phosphate buffer (pH 7.4). Following centrifugation at 10,000 g for 10 minutes, aliquots of homogenate supernatants in PBS were obtained by centrifugation (10,000 g for 10 minutes). The total protein was measured by Bradford's method. The concentration of TNF-α and IL-1β in the supernatant of mucosal homogenates was determined by ELISA (R&D systems Inc., Minneapolis, Minn., USA) according to the manufacture's instruction. After color development, optimal density was measured with microplate reader. The concentration of TNF-α and IL-1β were expressed as pictogram/mg protein.

[1] = test system: Aspirin-induced gastric injury; assay: Aspirin-induced gastric mucosal injury model (ulcer index); conditions: rats, 3 h after aspirin, control 29.8±7.7
Protocol: Male Sprague-Dawley rats weighting 250-300 g were fed a standard laboratory diet and water ad libitum, and kept in cages in a temperature and humidity controlled room with a 12 hour dark-light cycle before and during the experiment. Prior to administration of aspirin, animals were deprived of food for 24 hours but had free access to water. This experimental protocol was approved by the Akita University Animal Care Committee. Aspirin-induced gastric injury was produced by intragastric administration of aspirin (200 mg/kg) and HCl (0.15 N, 8 ml/kg). ATL-146e (2.5 or 5 μg/kg, n=5 in each dose) or vehicle was injected intraperitoneally 30 minutes prior to aspirin administration. The animals were sacrificed by stunning and cervical dislocation 3 hours after aspirin administration and the stomach was removed. Gastric mucosal lesions were measured by two independent observers blinded to the treatment. The ulcer index was calculated as the sum of the lengths of all lesions.

IL-1β = assay: Gastric mucosal concentration of IL-1β after aspirin (ELISA); conditions: rats, gastric mucosa, 3 h after aspirin
Protocol: as §1

myeloperoxidase (MPO) = assay: Myeloperoxidase (MPO) concentration in the gastric mucosa after aspirin; conditions: rats, 3 h after aspirin, normal 2.8±0.2, vehicle 13.8±1.2, P<0.001
Protocol: An assay of gastric mucosal myeloperoxidase concentration was applied to quantify the degree of neutrophil infiltration. Three hundred milligrams of scraped mucosa was homogenized for 30 sec with a polytron homogenizer (PT 1200, KInematica AG, Littau, Switzerland) in 1.0 ml of ice-cold 0.5% hexadecyliltrimethylammonium bromide in 50 mM phosphate buffer (pH 6.0). Hexadecyliltrimethylammonium bromide is used to negate the pseudoperoxidase activity of hemoglobin and to solubilize membrane-bound MPO. The homogenate was sonicated (U50 IKA Werke Grm1H and Co. KG, Staufen, Germany) for 10 seconds, freeze-thawed three times and centrifuged for 20 minutes at 18,000 g. The supernatant was taken for determination of the enzyme activity utilizing an ELISA kit (Bioxytech, Oxis International, Inc. Portland, Oreg., USA). The change in absorbance at 405 nm was measured with a spectrophotometer (Microplate reader model 3550, Bio-Rad, Hercules, Calif., USA). The concentration of myeloperoxidase was expressed as nanogram per mg protein measured using Bradford's method.

SMILES	increase in gastric acid output (gastric acid secretion; P<0.05)	gastric acid output (gastric acid secretion; without compound 114, P<0.05)	effect on the reduction of gastric PGE2 concentration induced by aspirin (PGE2; rats, 5 μg/kg before aspirin 200 mg/kg, P>0.05 vs. aspirin alone)	reduction of the increase in TNF-α above control levels caused by aspirin (TNF-α; 2.5 μg/kg)	reduction of the increase in TNF-α above control levels caused by aspirin (TNF-α; 5 μg/kg)	ulcer index (total length of gastric erosions) ([1]; 2.5 μg/kg i.p. 30 min before aspirin 200 mg/kg + HCl, P<0.05)	ulcer index (total length of gastric erosions) ([1]; 5.0 μg/kg i.p. 30 min before aspirin 200 mg/kg + HCl, P<0.01)	reduction of the increase in IL1-β above control levels caused by aspirin (IL-1β; 2.5 μg/kg)	reduction of the increase in IL1-β above control levels caused by aspirin (IL-1β; 5 μg/kg)	MPO concentration in the gastric mucosa (myeloperoxidase (MPO); 2.5 μg/kg pretreatment)	MPO concentration in the gastric mucosa (myeloperoxidase (MPO); 5 μg/kg pretreatment)	reduction of PGE2 concentration vs vehicle-treated rats (PGE2; aspirin 200 mg/kg alone, P<0.05)	concentration of PGE2 in gastric mucosa (PGE2; rats, aspirin 200 mg/kg alone (group C), vehicle-treated 255.3±64.7)
CCNC(=O)C1OC(n2cnc3c(N)nc(C#CCC4CCC(C(=O)OC)CC4)nc32)C(O)C1O (stereo not shown) [ATL-146e, 4-{3-[6-Amino-9-(5-ethylcarbamoyl-3,4-dihydroxy-tetrahydro-furan-2-yl)-9H-purin-2-yl]-prop-2-ynyl}-cyclohexanecarboxylic acid methyl ester]	threefold	326 mmolq/3 h	did not interfere with the reduction of gastric PGE2 concentration induced by aspirin	90.3%	99.7%	7.0±2.34 mm	3.1±1.42 mm	64.0%	97.2%	2.9±0.35 μg/g protein	2.7±0.14 μg/g protein	–	–
CC(=O)Oc1ccccc1C(=O)O [aspirin, acetylsalicylic acid]	–	–	–	–	–	–	–	–	–	–	–	82.3%	47.4 ± 5.6 ng/g
